What all share (format): in vivo
For assay [1], the system named is Rhizopus stolonifer (RIZPST). Description: Field microplot assessment on Rhizopus rot on peaches. The following applies: field grown peaches, 17 days after first application.
Assay [2] deals with Podosphaera leucotricha (PODOLE). Description: Field assessment of apple powdery mildew. The following applies: apples, 5% EC + ETHOMEEN T18H. Here is the method:
Assessment of compound I of PODOLE on apples was performed in two separate field trials. For the first trial, a fungicidal treatment containing a 5% EC formulation of compound I plus an adjuvant (ETHOMEEN T18H, 50% w/w at 1.0% v/v), was sprayed on the plant canopy of apples (MABSD, Imperatore Dallago variety) seven times during the growing season, the first application at BBCH 61 of plant growth stage, under natural infection of powdery mildew under open field conditions. The following six applications were applied in approximately 10 day intervals. Formulations of compound I were applied at rates of 100, 150, and 200 grams of active ingredient per hectare (g ai/ha). The treatment was part of an experimental trial designed as a randomized complete block with four replications and a plot of approximately 4.2×7.5 m. Formulations of compound I were applied at water volume of 800 L/ha, using a backpack plot sprayer (TRACKSP, Andreoli Engineering) and pressurized at 450 kPa.
For the second trial, a fungicidal treatment containing a 5% EC formulation of compound I plus an adjuvant (ETHOMEEN T18H, 50% w/w at 1.0% v/v), was sprayed on the plant canopy of apples (MABSD, Imperatore Dallago variety) seven times during the growing season, the first application at BBCH 61 of plant growth stage, under natural infection of powdery mildew under open field conditions. The following six applications were applied in approximately 10 day intervals. Formulations of compound I were applied at rates of 100, 150, and 200 grams of active ingredient per hectare (g ai/ha). The treatment was part of an experimental trial designed as a randomized complete block with four replications and a plot of approximately 4.2×7.5 m. Formulations of compound I were applied at water volume of 800 L/ha, using a self-propelled multi-plot track sprayer (TRACKSP, Andreoli Engineering) and pressurized at 450 kPa.
Disease severity in both trials was assessed as the percentage of leaf incidence and leaf infection on a random selection of 100 leaves. In the first trial, powdery mildew infection was assessed three times, 3 days after application D (3DAAD), 7DAAF, and SDAAG. In the second trial, powdery mildew infection was assessed four times, 6DAAB, 2DAAD, 7DAAF and SDAAG. Area under the disease progress curve (AUDPC) was calculated for each plot using the sets of recorded visual infection data. Relative AUDPC (% control based on AUDPC) was calculated as percent of the nontreated control.

The next assay relates to Capnodium sp. (CAPDSP). In words: Field assessment of sooty mold on pears. The text has this:
A 10% SC formulation of Compound I was tank mixed with three different adjuvants: Agnique BP420 (50% w/w at 0.3% v/v), Ethomeen T18H (50% w/w at 0.15% v/v) and Trycol (50% w/w at 0.3% v/v). Formulations of compound I were sprayed on the plant canopy of pear trees (Highland variety) of approximately 2.5 m in height at rates of 100, 150 and 200 grams of active ingredient per hectare (g ai/ha). The trial was based on six foliar applications during the growing season at approximately 12 day intervals with natural pear scab and sooty mold infections in open field conditions. The treatment was part of an experimental trial designed as a randomized complete block with four replications and a plot of approximately 3×5 m. Formulations of compound I were applied with a SOLO mistblower sprayer at a water volume of 1500 L/ha.
For VENTPI evaluation, percent control was calculated based on incidence and severity in fruit assessment vs the nontreated control on a random selection of 50 fruits per plot. […] Percent control for both diseases was calculated at 11DAAE, 7DAAF and 15DAAF.

The test system of assay [3] is Erysiphe necator (UNCINE). Description: Field assessment of grape powdery mildew. Conditions: grapes, 5% EC + Trycol. An excerpt:
A fungicidal treatment containing Compound I, applied in a 5% EC formulation and tank mixed with an adjuvant (Trycol, 50% w/w at 0.2% v/v), was sprayed on the plant canopy of grape plants (VITVI, Chardonnay variety) at rates of 50, 100 and 150 grams of active ingredient per hectare (g ai/ha). The trial was based on six foliar applications during the growing season at approximately 10 day intervals with natural infections in open field conditions. The treatment was part of an experimental trial designed as a randomized complete block with four replications and a plot of approximately 3.0×7.0 m. Formulations of compound I were applied at water volume of 1000 L/ha, using a self-propelled multi-plot track sprayer (TRACTAIR, Andreoli Engineering) and pressurized at 400 kPa.
Disease evaluations were recorded as percent of leaves and fruit with disease (incidence) and percent diseased area on leaves and fruit (severity, using 100 random leaves and fruit bunches. Grape powdery mildew was assessed three times, with the initial assessment at 2 days after the fourth application. Area under the disease progress curve (AUDPC) was calculated for each plot using the sets of recorded severity data. Relative AUDPC (% control based on AUDPC) was calculated as percent of the nontreated control. Results are given in Table 8.

For assay [4], the system named is Botrytis cinerea (BOTRCI). In words: Strawberry shelf-life simulation, gray mold. The text has this: Strawberry shelf-life simulation (3 repetitions): Fungicidal treatments were applied to strawberry plants grown in a shade house to obtain healthy fruits. Once matured, the healthy fruits were harvested and transferred to a laboratory for a shelf-simulation study. In the laboratory, the fruits were bleach decontaminated to remove residual chemical residue. Compound I, applied in a 5% EC formulation and mixed with an adjuvant (Trycol, 50% w/w at 0.2% v/v), was sprayed on the healthy strawberries at rates of 50, 100 and 150 grams of active ingredient per hectare (g ai/ha) and allowed to dry completely. The fruits were then inoculated with gray mold and incubated on a laboratory bench at 20° C. Disease severity was recorded as a percentage of fruit infection assessments. Gray mold infection was assessed twice after the initial inoculation, 4 days after infection (4DAI) and 6DAI. Area under the disease progress curve (AUDPC) was calculated for each repetition using the sets of recorded severity data. Relative AUDPC (% control based on AUDPC) was calculated as percent of the nontreated control.

Turning to `COc1ccnc(C(=O)N[C@@H](C)C(=O)O[C@@H](C)C(c2ccc(F)cc2)c2ccc(F)cc2)c1OC(C)=O` [Compound I, (S)-1,1-bis(4-fluorophenyl)propan-2-yl (3-acetoxy-4-methoxypicolinoyl)-L-alaninate], the results for the “RIZPST, percentage of diseased peaches (Incidence)” value in assay [1] (50 g ai/ha), in assay [1] (100 g ai/ha) and in assay [1] (150 g ai/ha) were 67.5%, 22.5% and 35.0%, respectively. Also, the “Percent control (AUDPC) from leaf infection assessments” value in assay [2] (Trial 1, 100 g ai/ha) is “B (51-75)”; in assay [2] (Trial 1, 150 g ai/ha), “A (76-100)”; in assay [2] (Trial 1, 200 g ai/ha) it was “A (76-100)”; in assay [2] (Trial 2, 100 g ai/ha), “A (76-100)”; in assay [2] (Trial 2, 150 g ai/ha), “A (76-100)”; in assay [2] (Trial 2, 200 g ai/ha), “A (76-100)”. The “Percent control (AUDPC) from leaf infection assessments” value in assay [3] (50 g ai/ha), in assay [3] (100 g ai/ha) and in assay [3] (150 g ai/ha) was “A (76-100)” in each case. Also, the “Percent control CAPDSP, incidence in leaf assessment” value was “A (76-100)” in the assay on Capnodium sp. (CAPDSP) (100 g ai/ha, adjuvant Agnique BP420 (first such line, r11), 15 days after final application); “A (76-100)” with Capnodium sp. (CAPDSP) (100 g ai/ha, adjuvant Agnique BP420 (second such line, r13), 15 days after final application); “A (76-100)” in the assay with Capnodium sp. (CAPDSP) (100 g ai/ha, adjuvant ETHOMEEN, 15 days after final application); “A (76-100)” in the assay with Capnodium sp. (CAPDSP) (100 g ai/ha, adjuvant None, 15 days after final application); “A (76-100)” in the assay on Capnodium sp. (CAPDSP) (100 g ai/ha, adjuvant Trycol, 15 days after final application); “A (76-100)” with Capnodium sp. (CAPDSP) (200 g ai/ha, adjuvant Agnique BP420, 15 days after final application). For the same compound, the “Percent control (AUDPC) from bunch infection assessments” value in assay [3] (50 g ai/ha) was “B (51-75)”; in assay [3] (100 g ai/ha) it was “B (51-75)”; in assay [3] (150 g ai/ha), “A (76-100)”. The results for the “Percent control (AUDPC) from fruit severity assessments” value in assay [4] (50 g ai/ha), in assay [4] (100 g ai/ha) and in assay [4] (150 g ai/ha) were “B (51-75)”, “A (76-100)” and “A (76-100)”, respectively.

Source of the values: patent US20200077655A1, “Use of an Acyclic Picolinamide Compound as a Fungicide for Control of Phytopathogenic Fungi in Orchard, Vineyard and Plantation Crops” (Dow AgroSciences LLC, priority 2017, published 2020).
